From patent publication US20230391821A1, “METHODS FOR TARGET RELEASE FROM INTEIN COMPLEXES” (MERCK PATENT GMBH, priority 2020, published 2023) come the findings set out here.

Test [1] concerns intein complex of 13 kDa intein-C tagged target (Thioredoxin) and intein-N ligand R44-358132. Put plainly: Example 2-1: intein cleavage / tagless target release on intein-N column, Cleavage Buffer pH 7 with additives. It is filed as biochemical, Escherichia coli (strain K12). Particulars: 13 kDa target, versus Cleavage B.1.
The subject of test [2] is intein complex of 13 kDa intein-C tagged target and intein-N ligand R44-358132. Description: Example 3: intein cleavage under capture conditions (pH 9), no pH shift. It is filed as biochemical. The note with it: 13 kDa target, versus Capture A.1. Here is the method:
A 13 kDa intein-C tagged target was pre-purified using Strep-II Tag purification as described in example 1 and was diluted to a concentration of 1 mg/mL. The intein-N resin prototype column was equilibrated with 10 CV Capture Buffer (100 mM Tris, 200 mM NaCl, pH 9). The pre-purified intein-C target was loaded with 5 CV to the prototype column under capture conditions (100 mM Tris, 200 mM NaCl, pH 9). The impurities were washed out with 10 CV Capture Buffer (100 mM Tris, 200 mM NaCl, pH 9). The Capture Buffer designated A.1 (100 mM Tris, 200 mM NaCl, pH 9) was used as a reference in this setup. […]
The two different Capture Buffers A.1 and A.2 were used in two consecutive purification cycles. The A280-Absorbance chromatograms were recorded and analyzed to determine the amount of protein recovered from the elution and the CIP phase.
The amount of eluted target recovered from the elution step 1 and elution step 2 were determined using the A280-Absorbance and the molecular extinction coefficient of the cleaved target. The total bound amount of intein-C tagged protein was calculated using the eluted target, and the remaining intein-C target, that was released during the cleaning phase together with the remained intein-C fragments. The yield of tagless released target during the elution phase was calculated per total bound intein-C target. […]

The subject of test [3] is intein complex of 13 kDa intein-C tagged target and intein-N ligand R46-358132. Put plainly: Example 4: intein cleavage with 10 min residence time during elution, with and without pH shift. It is filed as biochemical. Here is the method: The intein-N resin prototype column, carrying a third generation of intein-N ligand (R46-358132) was used for five intein purifications. The improvement of intein cleavage through additives such as imidazole (Examples 2, 3) was studied under longer residence times, with and without introducing a pH shift during the elution phase.
One reference run (cycle 1) was accomplished as a reference run for that study, using 5 minutes residence time during the whole purification process (0.2 ml/min flow rate). Further, the intein-N resin prototype column was used in additional four consecutive cycles (cycles 2-5) where a combinatorial method flow rate was given. […]
Depending on the used buffer system during the elution phase, the amount of eluted tagless 13 kDa target was about 0.40-0.91 mg. […] The total intein-C bound protein was calculated using the eluted target and the remaining intein-C target, that was released during the cleaning phase together with the remained intein-C fragments. The amount of eluted target during elution step 1 and step 2 was calculated for all five cycles using the A280-Absorbance and the molecular extinction coefficient of the cleaved target.
The yield of tagless released target during the elution phase was calculated per total bound amount of intein-C target. […]

Test [4] has as its system intein complex of intein-C tagged hEPO (19 kDa) and intein-N ligand R46-358132. Put plainly: Example 6: intein cleavage at pH 7, highly glycosylated target hEPO. The class given is biochemical, human. The note with it: versus Cleavage B.1.
Test [5] has as its system intein complex of intein-C tagged S1-RBD (26 kDa) and intein-N ligand R49-358132. Description: Example 6: intein cleavage at pH 7, highly glycosylated target S1-RBD. It is filed as biochemical, SARS-CoV-2. The note with it: versus Cleavage B.1.

For `c1c[nH]cn1` [imidazole], the “% improvement in yield (E1)” value is “up to 11.15%” in test [1]; 15.15% in test [2]; 12.51% in test [3] (cycle 3 (B.2) versus cycle 1 (B.1, 0.2 ml/min), cycle 5 (A.2) versus cycle 4 (A.1)). The “elution amount in A280 chromatogram compared with buffer without additive” value in test [3] (13 kDa target, elution 1 and 2, FIG. 9) was “higher elution amount”. Further, the “% improvement in yield (total)” value in test [4] was found to be 12.22%; in test [5] it was 1.95%.
